# Data from ChEMBL document CHEMBL1123498, “Structural studies on bioactive compounds. 4. A structure-antitumor activity study on analogues of N-methylformamide” (J Med Chem, 1986).
# Tests used:
# Mus musculus [1] = experiment: Antitumor activity was evaluated for the compound against the M5076 reticulum cell sarcoma in mice and the % T/C(treated/control) value was calculated at optimal dose of 50 mg/kg; type: functional
# Mus musculus [2] = experiment: Antitumor activity was evaluated against the TLX5 lymphoma measured as mean death day for the treated at a optimal dose of 100 mg/Kg/day; type: functional
# Mus musculus [3] = experiment: Antitumor activity was evaluated against the TLX5 lymphoma in mice measured as treated to control at optimal dose. 100 mg/Kg/day; type: functional
# Mus musculus [4] = experiment: Antitumor activity was evaluated against the TLX5 lymphoma in mice measured for control as death day at a optimal dose of 100 mg/Kg/day; type: functional
# Mus musculus [5] = experiment: Antitumor activity was evaluated against the M5076 reticulum cell sarcoma in mice measured as Control tumor volume for the treated at the optimal dose 50 mg/Kg/day; type: functional
# Mus musculus [6] = experiment: Antitumor activity was evaluated against the M5076 reticulum cell sarcoma in mice at dose of 200-25 mg/kg per day; type: ADME, organism-based
# Mus musculus [7] = experiment: Antitumor activity was evaluated against the M5076 reticulum cell sarcoma in mice measured as mean tumor volume for the treated at the optimal dose 50 mg/Kg/day; type: functional
# Mus musculus [8] = experiment: Antitumor activity was evaluated against the TLX5 lymphoma in mice measured as treated to control at optimal dose. 800 mg/Kg/day; type: functional
# Mus musculus [9] = experiment: Antitumor activity was evaluated against the M5076 reticulum cell sarcoma in mice measured as mean tumor volume for the treated at the optimal dose 200 mg/Kg/day; type: functional
# Mus musculus [10] = experiment: Antitumor activity was evaluated against the M5076 reticulum cell sarcoma in mice measured as Control tumor volume for the treated at the optimal dose 200 mg/Kg/day; type: functional
# Mus musculus [11] = experiment: Antitumor activity was evaluated against the TLX5 lymphoma measured as mean death day for the treated at a optimal dose of 800 mg/Kg/day; type: functional
# Mus musculus [12] = experiment: Antitumor activity was evaluated for the compound against the M5076 reticulum cell sarcoma in mice and the % T/C(treated/control) value was calculated at optimal dose of 200 mg/kg; type: functional
# Mus musculus [13] = experiment: Antitumor activity was evaluated against the M5076 reticulum cell sarcoma in mice at dose of 400-100 mg/kg per day; type: ADME, organism-based
# Mus musculus [14] = experiment: Antitumor activity was evaluated against the TLX5 lymphoma in mice measured for control as death day at a optimal doses of 800 mg/Kg/day; type: functional
# Mus musculus [15] = experiment: Antitumor activity was evaluated against the M5076 reticulum cell sarcoma in mice at dose of 1500-600 mg/kg per day; type: functional
# Mus musculus [16] = experiment: Antitumor activity was evaluated against the M5076 reticulum cell sarcoma in mice measured as Control tumor volume for the treated at the optimal dose 1000 mg/Kg/day; type: functional
# Mus musculus [17] = experiment: Antitumor activity was evaluated for the compound against the M5076 reticulum cell sarcoma in mice and the % T/C(treated/control) value was calculated at optimal dose of 1000 mg/kg; type: functional
# Mus musculus [18] = experiment: Antitumor activity was evaluated against the M5076 reticulum cell sarcoma in mice measured as mean tumor volume for the treated at the optimal dose 1000 mg/Kg/day; type: functional
# Mus musculus [19] = experiment: Antitumor activity was evaluated against the M5076 reticulum cell sarcoma in mice at dose of 150-6.25 mg/kg per day; type: ADME, organism-based
# Mus musculus [20] = experiment: Antitumor activity was evaluated against the TLX5 lymphoma in mice measured for control as death day at a optimal dose 400 mg/Kg/day; type: functional
# Mus musculus [21] = experiment: Antitumor activity was evaluated against the TLX5 lymphoma measured as mean death day for the treated at a optimal dose 400 mg/Kg/day; type: functional
# Mus musculus [22] = experiment: Antitumor activity was evaluated against the TLX5 lymphoma measured as mean death day for the treated at a optimal dose 800 mg/Kg/day; type: functional
# Mus musculus [23] = experiment: Antitumor activity was evaluated against the TLX5 lymphoma in mice measured as treated to control at optimal dose. 400 mg/Kg/day; type: functional
# Mus musculus [24] = experiment: Antitumor activity was evaluated against the M5076 reticulum cell sarcoma in mice at dose of 2500-600 mg/kg per day; type: ADME, organism-based
# Mus musculus [25] = experiment: Antitumor activity was evaluated against the M5076 reticulum cell sarcoma in mice measured as Control tumor volume for the treated at the optimal dose 400 mg/Kg day; type: functional
# Mus musculus [26] = experiment: Antitumor activity was evaluated against the M5076 reticulum cell sarcoma in mice measured as mean tumor volume for the treated at the optimal dose 400 mg/kg day; type: functional
# Mus musculus [27] = experiment: Antitumor activity was evaluated against the M5076 reticulum cell sarcoma in mice at dose of 800-100 mg/kg per day; type: ADME, organism-based
# Mus musculus [28] = experiment: Antitumor activity was evaluated against the M5076 reticulum cell sarcoma in mice measured as mean tumor volume for the treated at the optimal dose 100 mg/Kg/day; type: functional
# Mus musculus [29] = experiment: Antitumor activity was evaluated against the TLX5 lymphoma in mice measured as treated to control at a optimal dose of 200 mg/Kg/day; type: functional
# Mus musculus [30] = experiment: Antitumor activity was evaluated against the TLX5 lymphoma in mice measured as treated to control at a optimal dose of 100 mg/Kg/day; type: functional
# Mus musculus [31] = experiment: Antitumor activity was evaluated against the M5076 reticulum cell sarcoma in mice measured as mean tumor volume for the treated at the optimal dose 25 mg/Kg/day; type: functional
# Mus musculus [32] = experiment: Antitumor activity was evaluated against the TLX5 lymphoma in mice measured for control as death day at a optimal dose of 800 mg/Kg/day; type: functional
# Mus musculus [33] = experiment: Antitumor activity was evaluated against the M5076 reticulum cell sarcoma in mice measured as Control tumor volume for the treated at the optimal dose 100 mg/kg/day; type: functional
# Mus musculus [34] = experiment: Antitumor activity was evaluated against the M5076 reticulum cell sarcoma in mice at dose of 400-6.25 mg/kg per day; type: ADME, organism-based
# Mus musculus [35] = experiment: Antitumor activity was evaluated against the TLX5 lymphoma in mice measured as treated to control at a optimal dose of 400 mg/Kg/day; type: functional
# Mus musculus [36] = experiment: Antitumor activity was evaluated against the M5076 reticulum cell sarcoma in mice measured as Control tumor volume for the treated at the optimal dose 50 mg/kg/day; type: functional
# Mus musculus [37] = experiment: Antitumor activity was evaluated for the compound against the M5076 reticulum cell sarcoma in mice and the % T/C(treated/control) value was calculated at optimal dose of 100 mg/kg; type: functional
# Mus musculus [38] = experiment: Antitumor activity was evaluated against the TLX5 lymphoma in mice measured for control as death day at the below optimal dose 400 mg/Kg/day; type: functional
# Mus musculus [39] = experiment: Antitumor activity was evaluated against the TLX5 lymphoma in mice measured as treated to control at a optimal dose of 800 mg/Kg/day; type: functional
# Mus musculus [40] = experiment: Antitumor activity was evaluated for the compound against the M5076 reticulum cell sarcoma in mice and the % T/C(treated/control) value was calculated at optimal dose of 25 mg/kg; type: functional
# Mus musculus [41] = experiment: Antitumor activity was evaluated against the TLX5 lymphoma in mice measured for control as death day at a optimal dose of 200 mg/Kg/day; type: functional
# Mus musculus [42] = experiment: Antitumor activity was evaluated against the M5076 reticulum cell sarcoma in mice measured as Control tumor volume for the treated at the optimal dose 25 mg/Kg/day; type: functional
# Mus musculus [43] = experiment: Antitumor activity was evaluated against the TLX5 lymphoma measured as mean death day for the treated at a optimal dose of 200 mg/Kg/day; type: functional
# Mus musculus [44] = experiment: Antitumor activity was evaluated against the TLX5 lymphoma measured as mean death day for the treated at a optimal dose of 400 mg/Kg/day; type: functional
smiles,measurement,setting,value
CN(C)/C=C\[N+](=O)[O-],T/C,Mus musculus [1],35%
same,Mean day of death,Mus musculus [2],15.4
same,T/C,Mus musculus [3],139%
same,Control death day,Mus musculus [4],11.1
same,Control tumor volume,Mus musculus [5],1.5
same,LD10,Mus musculus [6],55 mg/kg/day
same,LD50,Mus musculus [6],75 mg/kg/day
same,Mean tumor volume,Mus musculus [7],0.5
NC=O [FORMAMIDE],T/C,Mus musculus [8],123%
same,Mean tumor volume,Mus musculus [9],0.8
same,Control tumor volume,Mus musculus [10],2.1
same,Mean day of death,Mus musculus [11],11.2
same,T/C,Mus musculus [12],38%
same,LD10,Mus musculus [13],200 mg/kg/day
same,LD50,Mus musculus [13],270 mg/kg/day
same,Control death day,Mus musculus [14],9.1
CN(C)C=O [DIMETHYLFORMAMIDE],LD10,Mus musculus [15],1130 mg/kg/day
same,LD50,Mus musculus [15],1280 mg/kg/day
same,Control tumor volume,Mus musculus [16],2.5
same,T/C,Mus musculus [17],40%
same,Mean tumor volume,Mus musculus [18],1
CNC(=O)ON(C(C)=O)C(=O)NC [CARACEMIDE],T/C,Mus musculus [1],38%
same,LD10,Mus musculus [19],53 mg/kg/day
same,LD50,Mus musculus [19],63 mg/kg/day
same,Control tumor volume,Mus musculus [5],2.4
same,Mean tumor volume,Mus musculus [7],0.9
CCNC=O,T/C,Mus musculus [8],137%
same,Control death day,Mus musculus [20],9.2
same,Mean day of death,Mus musculus [21],12.6
[2H]C([2H])([2H])NC=O,Control death day,Mus musculus [14],13.2
same,Mean day of death,Mus musculus [22],18.8
same,T/C,Mus musculus [23],142%
O=CNCO,Control tumor volume,Mus musculus [16],2.1
same,T/C,Mus musculus [17],38%
same,LD10,Mus musculus [24],1580 mg/kg/day
same,LD50,Mus musculus [24],1930 mg/kg/day
same,Mean tumor volume,Mus musculus [18],0.8
CNC(=O)c1ccccc1,Control tumor volume,Mus musculus [25],1.9
same,Mean tumor volume,Mus musculus [26],0.8
same,LD10,Mus musculus [27],450 mg/kg/day
same,LD50,Mus musculus [27],650 mg/kg/day
CNC=O,T/C,Mus musculus [1],33%
same,Mean tumor volume,Mus musculus [28],0.3
same,T/C,Mus musculus [29],135%
same,T/C,Mus musculus [30],120%
same,Control tumor volume,Mus musculus [10],2.7
same,Mean day of death,Mus musculus [2],11
same,Mean tumor volume,Mus musculus [31],2.1
same,Mean day of death,Mus musculus [11],17.6
same,Control death day,Mus musculus [32],9.2
same,Control tumor volume,Mus musculus [33],2.7
same,LD10,Mus musculus [34],220 mg/kg/day
same,LD50,Mus musculus [34],300 mg/kg/day
same,T/C,Mus musculus [35],178%
same,Control tumor volume,Mus musculus [36],2.7
same,T/C,Mus musculus [37],11%
same,Control death day,Mus musculus [38],9.2
same,T/C,Mus musculus [39],191%
same,Control death day,Mus musculus [4],9.2
same,T/C,Mus musculus [40],70%
same,T/C,Mus musculus [12],0%
same,Control death day,Mus musculus [41],9.2
same,Control tumor volume,Mus musculus [42],2.7
same,Mean day of death,Mus musculus [43],12.4
same,Mean day of death,Mus musculus [44],16.4
same,Mean tumor volume,Mus musculus [7],0.9
